The results in this text go back to US7666901B2, “Analogs of 17-hydroxywortmannin as PI3K inhibitors” (Wyeth, priority 2004, dated 2010).

In assay [1] the test system is MDA468 (human breast cancer cell). As to the kind of experiment: Cell proliferation (MTS) assay, MDA468. Type of assay: cell-based. The following applies: Homo sapiens, 72 h, three days treatment. On the procedure: (§1) Results of cell proliferation assays for exemplary compounds are shown below in Tables 1 and 2. Cell lines LNCaP (human prostate carcinoma), MDA468 (human breast cancer cell), MDA435 (human breast adenocarcinoma), and DU145 (human prostate carcinoma[…]) were purchased from American Type Culture Collection (ATCC) (Rockville, Md.). Cells were cultured in RPMI Medium 1640 containing 10% fetal bovine serum (FBS) in a 37° C. incubator containing 5% CO2. All cell culture reagents were purchased from Gibco-BRL (Grand Island, N.Y.). Cells were plated in 96-well culture plates at about 3000 cells per well. One day following plating, compounds or vehicle controls (buffer only) were added to cells. Proliferation assays were performed three days post initiation of treatment.
(§2) For a non-radioactive cell proliferation assay, viable cell densities are determined by measuring metabolic conversion (by viable cells) of the dye MTS tatrazolium dye, a cell proliferation assay known by one of skill in the art (MTS assay), a previously established cell proliferation assay. The assay is performed using an assay kit (Promega Corp., Madison, Wis.). The assay plates are incubated for 1-2 hours, and the results are read in a 96-well format plate reader by measuring absorbance at 490 nm. Effect of each compound is calculated as a percentage of control cell growth obtained from vehicle-treated cells grown in the same plate.

The next assay has as its target T1, Human TOR (Homo sapiens, UniProt P42345).
T1 construct: FLAG
Kind of assay: Human TOR (mTOR) kinase assay, DELFIA format. Type of assay: biochemical. On the procedure: The PI3K/AKT/TOR pathway is critical for cell proliferation, growth, survival, and angiogensis. Accordingly, compounds of the present invention may also be useful to inhibit TOR activity. Similar in vivo and in vitro assays to those described above with reference to PI3K can be used to determine the minimum concentration of compound sufficient to inhibit TOR. A human TOR assay and a Rat1-IGF1 assay as described in Examples 67 and 68, respectively was performed with some embodiments of the invention. The results of these assays are shown below in Tables 1 and 2.
Human TOR assays (See Toral-Barza, et al. Biochem Biophys. Res. Commun. 2005 Jun. 24; 332(1):304-10) with purified enzyme are performed in 96-well plates by DELFIA format as follows. Enzymes are first diluted in kinase assay buffer (10 mM Hepes (pH 7.4), 50 mM NaCl, 50 mM b-glycerophosphate, 10 mM MnCl2, 0.5 mM DTT, 0.25 mM microcystin LR, and […] BSA). To each well, 12 mL of the diluted enzyme is mixed briefly with 0.5 mL test inhibitor or control vehicle dimethylsulfoxide (DMSO). The kinase reaction is initiated by adding 12.5 mL kinase assay buffer containing ATP and His6-S6K to give a final reaction volume of 25 mL containing 800 ng/mL FLAG-TOR, […] ATP and […] His6-S6K. The reaction plate is incubated for 2 hours (linear at 1-6 hours) at room temperature with gentle shaking and then terminated by adding 25 mL Stop buffer (20 mM Hepes (pH 7.4), 20 mM EDTA, 20 mM EGTA). The DELFIA detection of the phosphorylated (Thr-389) His6-S6K is performed at room temperature using a monoclonal anti-P(T389)-p70S6K antibody (1A5, Cell Signaling) labeled with Europium-N1-ITC (Eu) (10.4 Eu per antibody, PerkinElmer). The DELFIA Assay buffer and Enhancement solution can be purchased from PerkinElmer. 45 mL of the terminated kinase reaction mixture is transferred to a MaxiSorp plate (Nunc) containing 55 mL PBS. The His6-S6K is allowed to attach for 2 hours after which the wells are aspirated and washed once with PBS. 100 mL of DELFIA Assay buffer with 40 ng/mL Eu-P(T389)-S6K antibody is added. The antibody binding is continued for 1 hour with gentle agitation. The wells are then aspirated and washed 4 times with PBS containing 0.05% Tween-20 (PBST). […] of DELFIA Enhancement solution is added to each well and the plates are read in a PerkinElmer Victor model plate reader. Data obtained is used to calculate enzymatic activity and enzyme inhibition by potential inhibitors.

Assay [2] relates to MDA435 (human breast adenocarcinoma). As to the kind of experiment: Cell proliferation (MTS) assay, MDA435. The format is cell-based. As to conditions: Homo sapiens, MDA435, 72 h, three days treatment. On the procedure: as §1, §2
The subject of assay [3] is LNCaP (human prostate carcinoma). As to the kind of experiment: Cell proliferation (MTS) assay, LNCaP. The format is cell-based. As to conditions: Homo sapiens, LNCaP, 72 h, three days treatment. As to the method: as §1, §2
For assay [4], the system named is DU145 (human prostate carcinoma/lymphocytic leukemia). As to the kind of experiment: Cell proliferation (MTS) assay, DU145. The format is cell-based. As to conditions: Homo sapiens, DU-145, 72 h, three days treatment. On the procedure: as §1, §2
Assay [5] deals with phosphor-AKT (S473) in Rat1 cells. Kind of assay: Rat1-IGF1 assay (IGF-1 induced phospho-AKT immunoblot). The format is cell-based, rat. As to conditions: Rattus norvegicus, Table 1. As to the method:
Rat1 cells are plated in 6-well culture plates and serum-starved for 24 hours. Serum-starved cells are treated either with control vehicle or with various concentrations of 17-HWT for 2 hours, stimulated by IGF-1 (100 ng/mL) for 30 minutes. Total cellular lysates are prepared using NuPAGE-LDS sample buffer (Invitrogen), sonicated and then clarified by centrifugation. Equal amounts of proteins are subject to immunoblotting analysis using NuPAGE electrophoresis system and probed with phosphor-AKT (S473), total AKT antibodies (Signaling Technology).

The term IC50 denotes the concentration that inhibits the measured activity by half. A lower IC50 goes with inhibition by little substance. Turning to `COC[C@H]1OC(=O)/C(=C/N2CCN(Cc3ccccc3)CC2)C2=C(O)C(=O)C3=C([C@H](OC(C)=O)C[C@@]4(C)C3CC[C@@H]4O)[C@]21C` (stereo partly drawn) [Compound 10, (1E,4S,4aR,5R,6aS,7S)-1-[(4-benzylpiperazin-1-yl)methylene]-7,11-dihydroxy-4-(methoxymethyl)-4a,6a-dimethyl-2,10-dioxo-1,2,4,4a,5,6,6a,7,8,9,9a,10-dodecahydroindeno[4,5-h]isochromen-5-yl acetate], the IC50 was 1.8 µg/mL in assay [1] (Table 1); 890 nM on Human TOR (Table 1); above 15 µg/mL in assay [2] (Table 1); 1 µg/mL in assay [3] (Table 1); 15 µg/mL in assay [4] (Table 1); 0.02 µg/mL in assay [5].

As for `COC[C@H]1OC(=O)/C(=C/N2CCC(c3ccccc3)CC2)C2=C(O)C(=O)C3=C([C@H](OC(C)=O)C[C@@]4(C)C3CC[C@@H]4O)[C@]21C` (stereo partly drawn) [Compound 15, (1E,4S,4aR,5R,6aS,7S)-7,11-dihydroxy-4-(methoxymethyl)-4a,6a-dimethyl-2,10-dioxo-1-[(4-phenylpiperidin-1-yl)methylene]-1,2,4,4a,5,6,6a,7,8,9,9a,10-dodecahydroindeno[4,5-h]isochromen-5-yl acetate], the IC50 was 2.3 µg/mL in assay [1] (Table 1); 2450 nM on Human TOR (Table 1); above 15 µg/mL in assay [2] (Table 1); 0.9 µg/mL in assay [3] (Table 1); 15 µg/mL in assay [4] (Table 1); 0.02 µg/mL in assay [5].

In the case of `COC[C@H]1OC(=O)/C(=C/N(C)CCCN(C)C)C2=C(O)C(=O)C3=C([C@H](OC(C)=O)C[C@@]4(C)C3CC[C@@H]4O)[C@]21C` (stereo partly drawn) [Compound 5, (1E,4S,4aR,5R,6aS,7S)-1-{[[3-(dimethylamino)propyl](methyl)amino]methylene}-7,11-dihydroxy-4-(methoxymethyl)-4a,6a-dimethyl-2,10-dioxo-1,2,4,4a,5,6,6a,7,8,9,9a,10-dodecahydroindeno[4,5-h]isochromen-5-yl acetate], the IC50 in assay [1] (Table 1) was 1.8 µg/mL; in assay [1] (Table 2) it was 2 µg/mL; at Human TOR (Table 1) it was 2560 nM; against Human TOR (Table 2), 1280 nM; in assay [2] (Table 1) it was 15 µg/mL; in assay [2] (Table 2), 8.2 µg/mL. The 50% inhibitory concentration (IC50) came to 0.4 µg/mL in assay [3] (Table 1); 0.28 µg/mL in assay [3] (Table 2); 10 µg/mL in assay [4] (Table 1); 9.5 µg/mL in assay [4] (Table 2); 0.02 µg/mL in assay [5].

Take `COC[C@H]1OC(=O)/C(=C/N2CCN(C3CCCCC3)CC2)C2=C(O)C(=O)C3=C([C@H](OC(C)=O)C[C@@]4(C)C3CC[C@@H]4O)[C@]21C` (stereo partly drawn) [Compound 7, (1E,4S,4aR,5R,6aS,7S)-1-[(4-cyclohexylpiperazin-1-yl)methylene]-7,11-dihydroxy-4-(methoxymethyl)-4a,6a-dimethyl-2,10-dioxo-1,2,4,4a,5,6,6a,7,8,9,9a,10-dodecahydroindeno[4,5-h]isochromen-5-yl acetate]: the IC50 in assay [1] (Table 1) is 2 µg/mL; against Human TOR (Table 1), 818 nM; in assay [2] (Table 1), above 15 µg/mL; in assay [3] (Table 1), 0.88 µg/mL; in assay [4] (Table 1), above 15 µg/mL; in assay [5], 0.02 µg/mL.

Regarding `COC[C@H]1OC(=O)/C(=C/N2CCN(c3ccccc3)CC2)C2=C(O)C(=O)C3=C([C@H](OC(C)=O)C[C@@]4(C)C3CC[C@@H]4O)[C@]21C` (stereo partly drawn) [Compound 13, (1E,4S,4aR,5R,6aS,7S)-7,11-dihydroxy-4-(methoxymethyl)-4a,6a-dimethyl-2,10-dioxo-1-[(4-phenylpiperazin-1-yl)methylene]-1,2,4,4a,5,6,6a,7,8,9,9a,10-dodecahydroindeno[4,5-h]isochromen-5-yl acetate], the IC50 in assay [1] (Table 1) was 2 µg/mL; in assay [1] (Table 2), 3.5 µg/mL; against Human TOR (Table 1), 607 nM; against Human TOR (Table 2) it was 776 nM; in assay [2] (Table 1) it was above 15 µg/mL; in assay [2] (Table 2), 13 µg/mL. Besides, the IC50 in assay [3] (Table 1) amounted to 0.8 µg/mL; in assay [3] (Table 2), 0.33 µg/mL; in assay [4] (Table 1), 15 µg/mL; in assay [4] (Table 2) it was 17 µg/mL; in assay [5], 0.05 µg/mL.

In the case of `COC[C@H]1OC(=O)/C(=C/N2CCc3ccccc3C2)C2=C(O)C(=O)C3=C([C@H](OC(C)=O)C[C@@]4(C)C3CC[C@@H]4O)[C@]21C` (stereo partly drawn) [Compound 12, (1E,4S,4aR,5R,6aS,7S)-1-(3,4-dihydroisoquinolin-2(1H)-ylmethylene)-7,11-dihydroxy-4-(methoxymethyl)-4a,6a-dimethyl-2,10-dioxo-1,2,4,4a,5,6,6a,7,8,9,9a,10-dodecahydroindeno[4,5-h]isochromen-5-yl acetate], the IC50 in assay [1] (Table 1) is 6 µg/mL; against Human TOR (Table 1), 3190 nM; in assay [2] (Table 1), above 15 µg/mL; in assay [3] (Table 1), 2.8 µg/mL; in assay [4] (Table 1) it was above 15 µg/mL; in assay [5], 0.1 µg/mL.

On to `COC[C@H]1OC(=O)/C(=C/N2CCN(C)CC2)C2=C(O)C(=O)C3=C([C@H](OC(C)=O)C[C@@]4(C)C3CC[C@@H]4O)[C@]21C` (stereo partly drawn) [Compound 14, (1E,4S,4aR,5R,6aS,7S)-7,11-dihydroxy-4-(methoxymethyl)-4a,6a-dimethyl-1-[(4-methylpiperazin-1-yl)methylene]-2,10-dioxo-1,2,4,4a,5,6,6a,7,8,9,9a,10-dodecahydroindeno[4,5-h]isochromen-5-yl acetate], for which the IC50 in assay [1] (Table 1) was 2 µg/mL; on Human TOR (Table 1), 829 nM; in assay [2] (Table 1), above 15 µg/mL; in assay [3] (Table 1) it was 0.58 µg/mL; in assay [4] (Table 1), 15 µg/mL; in assay [5], 0.02 µg/mL.

On to `CCCCN(C)/C=C1/C(=O)O[C@H](COC)[C@@]2(C)C1=C(O)C(=O)C1=C2[C@H](OC(C)=O)C[C@@]2(C)C1CC[C@@H]2O` (stereo partly drawn) [Compound 8, (1E,4S,4aR,5R,6aS,7S)-1-{[butyl(methyl)amino]methylene}-7,11-dihydroxy-4-(methoxymethyl)-4a,6a-dimethyl-2,10-dioxo-1,2,4,4a,5,6,6a,7,8,9,9a,10-dodecahydroindeno[4,5-h]isochromen-5-yl acetate], for which the IC50 in assay [1] (Table 1) is 0.6 µg/mL; in assay [1] (Table 2), 0.9 µg/mL; at Human TOR (Table 1), 8310 nM; against Human TOR (Table 2), 9080 nM; in assay [2] (Table 1) it was 5 µg/mL; in assay [2] (Table 2), 3.1 µg/mL. Moreover, the IC50 in assay [3] (Table 1) came out at 0.09 µg/mL; in assay [3] (Table 2), 0.12 µg/mL; in assay [4] (Table 1) it was 2 µg/mL; in assay [4] (Table 2), 1.3 µg/mL; in assay [5], 0.1 µg/mL.
